Data: ChEMBL document CHEMBL1146433, “Bripiodionen, a new inhibitor of human cytomegalovirus protease from Streptomyces sp. WC76599” (J Nat Prod, 1997)

How the values were obtained:
M109 = experiment: Cytotoxicity against mouse M109 cells after 72 hrs by XTT assay; format: functional, cell-based; conditions: M109, 72 h
[1] = Inhibition of HCMV protease; design: species or system Human betaherpesvirus 5

Compound CC(C)C1O/C(=C2/C(=O)NC(CC(N)=O)C2=O)C=CC1C (configuration not stated) [BRIPIODIONEN] has an IC50 (M109) of 34 µM and an IC50 [1] of 30 µM.
